The assay addresses T1, soluble epoxide hydrolase (sEH) (Homo sapiens, UniProt P34913).
T1 sequence (P34913 1-555): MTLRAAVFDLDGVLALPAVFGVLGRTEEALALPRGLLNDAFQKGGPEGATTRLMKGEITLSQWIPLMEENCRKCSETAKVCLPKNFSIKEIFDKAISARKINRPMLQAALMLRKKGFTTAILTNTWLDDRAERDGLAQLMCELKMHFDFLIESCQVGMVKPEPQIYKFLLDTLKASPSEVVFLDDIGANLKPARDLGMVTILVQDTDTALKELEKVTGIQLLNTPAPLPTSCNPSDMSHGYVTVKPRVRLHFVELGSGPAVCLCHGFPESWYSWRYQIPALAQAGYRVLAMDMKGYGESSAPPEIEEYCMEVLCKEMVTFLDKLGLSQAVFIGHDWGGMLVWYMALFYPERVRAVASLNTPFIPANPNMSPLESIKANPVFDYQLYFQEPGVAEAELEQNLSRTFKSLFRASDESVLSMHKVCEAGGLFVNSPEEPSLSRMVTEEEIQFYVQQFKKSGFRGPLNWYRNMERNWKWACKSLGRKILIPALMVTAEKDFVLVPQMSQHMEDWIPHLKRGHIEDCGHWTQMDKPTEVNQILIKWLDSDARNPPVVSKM
As to the kind of experiment: recombinant enzyme inhibition. The assay is classed as biochemical.

Structures are written as SMILES. pKi: −log10 of the molar value.

Consider `O=C(Nc1ccc(Cl)cc1)Nc1ccc(Cl)c(Cl)c1` [TCC, 3,4,4′-trichlorocarbanilide], for which the pKi is 7.02.

Broadly, the pKi is −log10 of the Ki, conventionally taken in molar units.

These data come from PMC3156297 (2011).
